Counter-ions that a name gives are not always drawn. Active and inactive are the calls of the source. For most assays here, no stated cut-off is given here; in the data, actives have a measured Kd and inactives only a lower limit.
Legend:
[1] = target: Adenylate kinase 2, mitochondrial (Homo sapiens, UniProt P54819)
[2] = target: Mitogen-activated protein kinase 9 (Homo sapiens, UniProt P45984)
[3] = target: Tyrosine-protein kinase Lyn (Homo sapiens, UniProt P07948)
[4] = target: Ribosomal protein S6 kinase alpha-4 (Homo sapiens, UniProt O75676)
Chain of Ribosomal protein S6 kinase alpha-4 (O75676 whole entry): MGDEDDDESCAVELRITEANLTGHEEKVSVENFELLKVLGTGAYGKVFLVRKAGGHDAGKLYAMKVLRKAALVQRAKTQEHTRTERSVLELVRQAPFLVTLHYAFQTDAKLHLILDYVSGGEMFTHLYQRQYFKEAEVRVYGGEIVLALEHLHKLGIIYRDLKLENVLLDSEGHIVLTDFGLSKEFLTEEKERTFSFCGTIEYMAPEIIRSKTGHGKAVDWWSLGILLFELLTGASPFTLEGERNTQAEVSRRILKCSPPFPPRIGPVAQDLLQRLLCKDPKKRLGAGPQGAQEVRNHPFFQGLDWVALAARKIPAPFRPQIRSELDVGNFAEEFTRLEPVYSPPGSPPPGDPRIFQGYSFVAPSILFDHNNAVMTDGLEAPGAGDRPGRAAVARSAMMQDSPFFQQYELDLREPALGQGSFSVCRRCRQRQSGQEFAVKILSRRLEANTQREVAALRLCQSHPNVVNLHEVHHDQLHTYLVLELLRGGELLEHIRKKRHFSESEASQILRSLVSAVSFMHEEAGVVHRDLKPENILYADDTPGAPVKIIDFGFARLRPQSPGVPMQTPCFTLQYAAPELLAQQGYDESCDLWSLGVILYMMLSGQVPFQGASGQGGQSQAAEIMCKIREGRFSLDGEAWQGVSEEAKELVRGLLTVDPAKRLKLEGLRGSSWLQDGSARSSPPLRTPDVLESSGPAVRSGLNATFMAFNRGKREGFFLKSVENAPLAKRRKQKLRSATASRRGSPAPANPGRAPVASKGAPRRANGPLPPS

Ephrin type-A receptor 2 = Ephrin type-A receptor 2 (Homo sapiens, UniProt P29317)
Chain of Ephrin type-A receptor 2 (P29317 whole entry): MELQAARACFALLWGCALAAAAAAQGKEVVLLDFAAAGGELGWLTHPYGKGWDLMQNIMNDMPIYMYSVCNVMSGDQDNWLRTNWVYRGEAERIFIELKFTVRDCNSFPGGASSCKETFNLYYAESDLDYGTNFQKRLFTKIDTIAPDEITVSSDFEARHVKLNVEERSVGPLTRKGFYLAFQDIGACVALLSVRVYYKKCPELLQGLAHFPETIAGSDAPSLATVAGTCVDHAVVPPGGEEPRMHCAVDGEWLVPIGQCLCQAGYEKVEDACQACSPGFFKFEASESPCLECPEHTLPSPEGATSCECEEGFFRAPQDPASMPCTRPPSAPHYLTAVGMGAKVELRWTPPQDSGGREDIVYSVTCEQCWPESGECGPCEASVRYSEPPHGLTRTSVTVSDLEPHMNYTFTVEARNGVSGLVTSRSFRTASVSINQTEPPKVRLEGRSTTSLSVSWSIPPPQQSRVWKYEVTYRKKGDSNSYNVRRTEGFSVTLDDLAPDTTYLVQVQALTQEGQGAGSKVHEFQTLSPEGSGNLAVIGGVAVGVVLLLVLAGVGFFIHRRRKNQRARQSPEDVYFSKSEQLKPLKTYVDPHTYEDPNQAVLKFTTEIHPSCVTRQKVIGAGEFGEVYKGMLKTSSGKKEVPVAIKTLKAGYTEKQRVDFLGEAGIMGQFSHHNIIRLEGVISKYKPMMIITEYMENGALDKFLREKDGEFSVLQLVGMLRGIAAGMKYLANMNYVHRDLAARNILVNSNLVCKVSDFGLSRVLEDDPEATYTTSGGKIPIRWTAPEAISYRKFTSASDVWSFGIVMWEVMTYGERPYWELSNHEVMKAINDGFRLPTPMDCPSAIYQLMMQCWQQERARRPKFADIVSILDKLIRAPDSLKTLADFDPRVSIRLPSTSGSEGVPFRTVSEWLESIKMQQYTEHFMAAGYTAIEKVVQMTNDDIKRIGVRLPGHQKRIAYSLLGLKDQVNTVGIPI

[5] = target: T1, Mitogen-activated protein kinase kinase kinase 6 (Homo sapiens, UniProt O95382)
T1 sequence (O95382 whole entry): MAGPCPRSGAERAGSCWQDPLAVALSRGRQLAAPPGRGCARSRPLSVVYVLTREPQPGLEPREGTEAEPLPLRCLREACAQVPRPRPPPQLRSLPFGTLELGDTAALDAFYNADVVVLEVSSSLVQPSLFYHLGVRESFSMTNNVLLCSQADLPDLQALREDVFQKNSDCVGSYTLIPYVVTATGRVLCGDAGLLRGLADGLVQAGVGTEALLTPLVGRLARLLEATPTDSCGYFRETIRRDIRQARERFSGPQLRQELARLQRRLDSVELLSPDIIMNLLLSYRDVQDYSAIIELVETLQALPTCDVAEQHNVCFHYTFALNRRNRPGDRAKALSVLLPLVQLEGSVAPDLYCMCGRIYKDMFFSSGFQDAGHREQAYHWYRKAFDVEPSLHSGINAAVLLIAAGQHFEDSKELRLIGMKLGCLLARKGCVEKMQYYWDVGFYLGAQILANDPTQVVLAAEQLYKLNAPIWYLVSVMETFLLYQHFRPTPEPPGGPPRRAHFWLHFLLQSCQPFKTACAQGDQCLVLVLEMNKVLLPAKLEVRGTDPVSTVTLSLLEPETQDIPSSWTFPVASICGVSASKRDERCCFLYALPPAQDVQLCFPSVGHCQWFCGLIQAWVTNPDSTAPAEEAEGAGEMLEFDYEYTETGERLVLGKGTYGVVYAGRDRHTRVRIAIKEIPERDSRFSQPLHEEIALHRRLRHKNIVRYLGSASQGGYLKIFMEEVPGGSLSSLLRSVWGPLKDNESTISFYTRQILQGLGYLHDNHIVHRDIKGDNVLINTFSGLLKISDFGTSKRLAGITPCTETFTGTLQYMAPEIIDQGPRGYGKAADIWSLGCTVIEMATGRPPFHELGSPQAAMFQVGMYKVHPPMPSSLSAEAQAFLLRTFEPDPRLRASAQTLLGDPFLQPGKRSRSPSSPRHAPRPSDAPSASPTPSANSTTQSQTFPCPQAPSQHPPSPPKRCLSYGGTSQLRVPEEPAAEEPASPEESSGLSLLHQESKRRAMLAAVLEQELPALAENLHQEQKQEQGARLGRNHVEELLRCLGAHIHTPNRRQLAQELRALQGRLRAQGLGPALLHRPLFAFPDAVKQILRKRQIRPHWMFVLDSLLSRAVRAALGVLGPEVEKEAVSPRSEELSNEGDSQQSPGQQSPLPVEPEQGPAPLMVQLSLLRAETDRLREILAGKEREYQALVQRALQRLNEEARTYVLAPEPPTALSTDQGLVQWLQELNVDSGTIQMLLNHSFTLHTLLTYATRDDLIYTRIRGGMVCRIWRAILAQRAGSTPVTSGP

[6] = target: T2, DNA replication licensing factor MCM4 (Homo sapiens, UniProt P33991)
T2 sequence (P33991 whole entry): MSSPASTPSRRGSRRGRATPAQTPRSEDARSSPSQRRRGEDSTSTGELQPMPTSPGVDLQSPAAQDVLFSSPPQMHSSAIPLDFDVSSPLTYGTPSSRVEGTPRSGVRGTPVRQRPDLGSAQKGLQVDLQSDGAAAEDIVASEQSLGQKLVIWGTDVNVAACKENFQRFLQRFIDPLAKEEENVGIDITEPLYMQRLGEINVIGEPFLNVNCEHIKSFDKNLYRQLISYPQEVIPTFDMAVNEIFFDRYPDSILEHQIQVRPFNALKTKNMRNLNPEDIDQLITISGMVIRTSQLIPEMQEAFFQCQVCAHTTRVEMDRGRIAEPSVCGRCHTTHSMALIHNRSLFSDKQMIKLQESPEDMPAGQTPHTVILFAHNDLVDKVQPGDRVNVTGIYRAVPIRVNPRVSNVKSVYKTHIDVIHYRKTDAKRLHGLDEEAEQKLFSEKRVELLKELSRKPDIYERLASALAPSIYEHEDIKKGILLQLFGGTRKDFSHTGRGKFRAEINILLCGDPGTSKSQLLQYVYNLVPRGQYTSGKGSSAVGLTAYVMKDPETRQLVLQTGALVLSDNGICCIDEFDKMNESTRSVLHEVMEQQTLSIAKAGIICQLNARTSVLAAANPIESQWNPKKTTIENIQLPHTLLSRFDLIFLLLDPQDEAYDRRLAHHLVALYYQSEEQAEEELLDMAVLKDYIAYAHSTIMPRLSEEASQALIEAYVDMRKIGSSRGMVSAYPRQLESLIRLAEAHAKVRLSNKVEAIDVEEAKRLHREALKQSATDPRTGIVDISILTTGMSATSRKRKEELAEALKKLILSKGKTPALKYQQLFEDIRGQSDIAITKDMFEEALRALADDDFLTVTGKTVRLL

[7] = target: Tyrosine-protein kinase Fer (Homo sapiens, UniProt P16591)
Chain of Tyrosine-protein kinase Fer (P16591 whole entry): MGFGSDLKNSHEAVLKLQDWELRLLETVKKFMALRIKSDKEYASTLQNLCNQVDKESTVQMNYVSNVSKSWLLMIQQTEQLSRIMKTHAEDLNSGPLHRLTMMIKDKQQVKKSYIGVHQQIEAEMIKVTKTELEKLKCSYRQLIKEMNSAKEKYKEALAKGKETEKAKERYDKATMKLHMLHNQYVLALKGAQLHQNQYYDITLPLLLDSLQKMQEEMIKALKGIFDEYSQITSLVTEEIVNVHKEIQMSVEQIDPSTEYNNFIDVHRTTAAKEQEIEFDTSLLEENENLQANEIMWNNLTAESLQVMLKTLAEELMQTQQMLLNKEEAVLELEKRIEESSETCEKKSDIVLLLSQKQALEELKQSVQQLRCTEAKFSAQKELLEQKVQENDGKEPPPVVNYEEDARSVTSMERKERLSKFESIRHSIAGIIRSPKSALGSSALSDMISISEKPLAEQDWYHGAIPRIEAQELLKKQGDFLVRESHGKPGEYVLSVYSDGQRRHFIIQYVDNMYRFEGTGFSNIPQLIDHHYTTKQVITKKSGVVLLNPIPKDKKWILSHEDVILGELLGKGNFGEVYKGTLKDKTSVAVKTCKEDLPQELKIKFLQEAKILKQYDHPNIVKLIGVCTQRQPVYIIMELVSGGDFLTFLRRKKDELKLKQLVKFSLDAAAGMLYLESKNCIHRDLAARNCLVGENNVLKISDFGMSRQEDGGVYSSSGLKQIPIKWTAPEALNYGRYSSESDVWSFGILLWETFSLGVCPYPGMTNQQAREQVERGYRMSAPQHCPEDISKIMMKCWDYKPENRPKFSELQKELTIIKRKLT

Chain of Mitogen-activated protein kinase 9 (P45984 whole entry): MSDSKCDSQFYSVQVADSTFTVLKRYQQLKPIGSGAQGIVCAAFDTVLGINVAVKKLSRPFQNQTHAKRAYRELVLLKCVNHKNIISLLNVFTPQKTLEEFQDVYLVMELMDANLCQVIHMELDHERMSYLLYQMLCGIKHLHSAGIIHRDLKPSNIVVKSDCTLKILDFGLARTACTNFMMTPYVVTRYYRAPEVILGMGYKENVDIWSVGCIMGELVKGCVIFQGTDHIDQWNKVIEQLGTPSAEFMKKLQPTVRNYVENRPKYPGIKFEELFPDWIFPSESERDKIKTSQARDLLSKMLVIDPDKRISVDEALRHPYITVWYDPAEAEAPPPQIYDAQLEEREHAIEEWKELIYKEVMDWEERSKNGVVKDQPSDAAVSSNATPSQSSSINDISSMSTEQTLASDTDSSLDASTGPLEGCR
Chain of Tyrosine-protein kinase Lyn (P07948 whole entry): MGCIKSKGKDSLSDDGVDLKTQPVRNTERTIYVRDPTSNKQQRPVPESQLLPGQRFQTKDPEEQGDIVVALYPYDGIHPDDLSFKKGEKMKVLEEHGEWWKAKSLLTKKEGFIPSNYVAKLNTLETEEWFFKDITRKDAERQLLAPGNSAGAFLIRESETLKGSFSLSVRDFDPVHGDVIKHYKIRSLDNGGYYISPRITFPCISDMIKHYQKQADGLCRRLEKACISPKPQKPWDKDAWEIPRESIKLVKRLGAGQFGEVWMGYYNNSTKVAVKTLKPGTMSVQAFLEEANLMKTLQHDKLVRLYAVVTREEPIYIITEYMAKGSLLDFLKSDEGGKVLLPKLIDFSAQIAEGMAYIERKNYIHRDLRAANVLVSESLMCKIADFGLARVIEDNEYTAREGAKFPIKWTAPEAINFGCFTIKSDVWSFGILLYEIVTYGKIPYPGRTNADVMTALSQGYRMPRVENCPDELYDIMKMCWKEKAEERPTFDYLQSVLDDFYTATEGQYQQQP

Cn1cc(-c2cnc3ccc4ccc(CS(=O)(=O)NCc5ccccn5)cc4c(=O)c3c2)cn1 [MK-8033]
Kd [1]: > 30 µM (inactive)
Kd [2]: > 30 µM (inactive)
Kd [3]: > 30 µM (inactive)
Kd [4]: > 30 µM (inactive)
Kd (Ephrin type-A receptor 2): > 30 µM (inactive)
Kd [5]: > 30 µM (inactive)
Kd [6]: > 30 µM (inactive)
Kd [7]: > 30 µM (inactive)

CN(C[C@@H]1COCCO1)S(=O)(=O)Nc1ccc2ccc3ncc(-c4cnn(C)c4)cc3c(=O)c2c1 [MK-2461]
Kd [1]: > 30 µM (inactive)
Kd [2]: 1.93 µM (active)
Kd [3]: > 30 µM (inactive)
Kd [4]: > 30 µM (inactive)
Kd (Ephrin type-A receptor 2): > 30 µM (inactive)
Kd [5]: > 30 µM (inactive)
Kd [6]: > 30 µM (inactive)
Kd [7]: > 30 µM (inactive)

CN1C/C=C/CCOc2cccc(c2)-c2ccnc(n2)Nc2cccc(c2)C1 [ZOTIRACICLIB]
Kd [1]: > 30 µM (inactive)
Kd [2]: 2.31 µM (active)
Kd [3]: > 30 µM (inactive)
Kd [4]: > 30 µM (inactive)
Kd (Ephrin type-A receptor 2): > 30 µM (inactive)
Kd [5]: > 30 µM (inactive)
Kd [6]: > 30 µM (inactive)
Kd [7]: 1.69 µM

Cc1cc(Nc2ncc(Cl)c(Nc3ccccc3S(=O)(=O)C(C)C)n2)c(OC(C)C)cc1C1CCNCC1 [CERITINIB]
Kd [1]: > 30 µM (inactive)
Kd [2]: > 30 µM (inactive)
Kd [3]: > 30 µM (inactive)
Kd [4]: > 30 µM (inactive)
Kd (Ephrin type-A receptor 2): > 30 µM (inactive)
Kd [5]: > 30 µM (inactive)
Kd [6]: > 30 µM (inactive)
Kd [7]: 0.214 µM (active)

Cc1nc2cc(-n3ncc(C(=O)c4cc5ccccc5[nH]4)c3N)ccc2[nH]1 [FGFR INHIBITOR DEBIO 1347]
Kd [1]: > 30 µM (inactive)
Kd [2]: > 30 µM (inactive)
Kd [3]: > 30 µM (inactive)
Kd [4]: > 30 µM (inactive)
Kd (Ephrin type-A receptor 2): > 30 µM (inactive)
Kd [5]: > 30 µM (inactive)
Kd [6]: > 30 µM (inactive)
Kd [7]: > 30 µM (inactive)

C[C@@H](N)c1ccc(C(=O)Nc2ccnc3[nH]ccc23)cc1 [Y-39983]
Kd [1]: > 30 µM (inactive)
Kd [2]: > 30 µM (inactive)
Kd [3]: > 30 µM (inactive)
Kd [4]: > 30 µM (inactive)
Kd (Ephrin type-A receptor 2): > 30 µM (inactive)
Kd [5]: > 30 µM (inactive)
Kd [6]: > 30 µM (inactive)
Kd [7]: > 30 µM (inactive)

N#CC1(c2ccc(NC(=O)c3cccnc3NCc3ccncc3)cc2)CCCC1 [RIVOCERANIB]
Kd [1]: > 30 µM (inactive)
Kd [2]: > 30 µM (inactive)
Kd [3]: > 30 µM (inactive)
Kd [4]: > 30 µM (inactive)
Kd (Ephrin type-A receptor 2): > 30 µM (inactive)
Kd [5]: > 30 µM (inactive)
Kd [6]: > 30 µM (inactive)
Kd [7]: > 30 µM (inactive)

CCNC(=O)C#Cc1ccc2c(c1)NC(=O)/C2=C(\Nc1ccc(CN(C)C)cc1)c1ccccc1
Kd [1]: > 30 µM (inactive)
Kd [2]: > 30 µM (inactive)
Kd [3]: 0.097 µM (active)
Kd [4]: 1.46 µM (active)
Kd (Ephrin type-A receptor 2): > 30 µM (inactive)
Kd [5]: > 30 µM (inactive)
Kd [6]: > 30 µM (inactive)
Kd [7]: 0.385 µM (active)

CC(C)c1cc(CNc2nc(Nc3cc(C4CC4)[nH]n3)cc(N3CCN(C)CC3)n2)on1 [XL-228]
Kd [1]: > 30 µM (inactive)
Kd [2]: > 30 µM (inactive)
Kd [3]: 1.33 µM (active)
Kd [4]: > 30 µM (inactive)
Kd (Ephrin type-A receptor 2): 0.032 µM (active)
Kd [5]: > 30 µM (inactive)
Kd [6]: > 30 µM (inactive)
Kd [7]: 0.105 µM (active)

CO[C@H]1C[C@@H]2CC[C@@H](C)[C@@](O)(O2)C(=O)C(=O)N2CCCC[C@H]2C(=O)O[C@H]([C@H](C)C[C@@H]2CC[C@@H](O)[C@H](OC)C2)CC(=O)[C@H](C)/C=C(\C)[C@@H](O)[C@@H](OC)C(=O)[C@H](C)C[C@H](C)/C=C/C=C/C=C/1C [SIROLIMUS]
Kd [1]: > 30 µM (inactive)
Kd [2]: > 30 µM (inactive)
Kd [3]: > 30 µM (inactive)
Kd [4]: > 30 µM (inactive)
Kd (Ephrin type-A receptor 2): > 30 µM (inactive)
Kd [5]: > 30 µM (inactive)
Kd [6]: > 30 µM (inactive)
Kd [7]: > 30 µM (inactive)

O=C(Nc1cc(C(F)(F)F)cc(C(F)(F)F)c1)c1cc(Cl)ccc1O [IMD-0354]
Kd [1]: > 30 µM (inactive)
Kd [2]: > 30 µM (inactive)
Kd [3]: > 30 µM (inactive)
Kd [4]: > 30 µM (inactive)
Kd (Ephrin type-A receptor 2): > 30 µM (inactive)
Kd [5]: > 30 µM (inactive)
Kd [6]: > 30 µM (inactive)
Kd [7]: > 30 µM (inactive)

Cc1cc(Nc2ncnc3ccc(NC4=NC(C)(C)CO4)cc23)ccc1Oc1ccn2ncnc2c1 [TUCATINIB]
Kd [1]: > 30 µM (inactive)
Kd [2]: > 30 µM (inactive)
Kd [3]: > 30 µM (inactive)
Kd [4]: > 30 µM (inactive)
Kd (Ephrin type-A receptor 2): > 30 µM (inactive)
Kd [5]: > 30 µM (inactive)
Kd [6]: > 30 µM (inactive)
Kd [7]: > 30 µM (inactive)

CCS(=O)(=O)c1cccc(-c2cc(C(=O)NC3CCN(C)CC3)c(C)c3[nH]c4ncc(C)cc4c23)c1 [TAK-901]
Kd [1]: > 30 µM (inactive)
Kd [2]: > 30 µM (inactive)
Kd [3]: 0.357 µM (active)
Kd [4]: 3 µM (active)
Kd (Ephrin type-A receptor 2): 0.178 µM (active)
Kd [5]: > 30 µM (inactive)
Kd [6]: > 30 µM (inactive)
Kd [7]: 0.574 µM (active)

O=C(Cc1ccc(-c2ccc(OCCN3CCOCC3)cc2)cn1)NCc1ccccc1 [TIRBANIBULIN]
Kd [1]: > 30 µM (inactive)
Kd [2]: > 30 µM (inactive)
Kd [3]: > 30 µM (inactive)
Kd [4]: > 30 µM (inactive)
Kd (Ephrin type-A receptor 2): > 30 µM (inactive)
Kd [5]: > 30 µM (inactive)
Kd [6]: > 30 µM (inactive)
Kd [7]: > 30 µM (inactive)

CCS(=O)(=O)N1CCN(c2ccc(Nc3ncc(C(N)=O)c(NC4CC4)n3)cc2)CC1 [Cerdulatinib Hydrochloride]
Kd [1]: > 30 µM (inactive)
Kd [2]: 1.43 µM (active)
Kd [3]: > 30 µM (inactive)
Kd [4]: > 30 µM (inactive)
Kd (Ephrin type-A receptor 2): > 30 µM (inactive)
Kd [5]: 0.473 µM (active)
Kd [6]: > 30 µM (inactive)
Kd [7]: > 30 µM (inactive)

Cc1cc(C(=O)NOCCO)c(Nc2ccc(I)cc2F)n(C)c1=O [AZD-8330]
Kd [1]: > 30 µM (inactive)
Kd [2]: > 30 µM (inactive)
Kd [3]: > 30 µM (inactive)
Kd [4]: > 30 µM (inactive)
Kd (Ephrin type-A receptor 2): > 30 µM (inactive)
Kd [5]: > 30 µM (inactive)
Kd [6]: > 30 µM (inactive)
Kd [7]: > 30 µM (inactive)

Cn1ncc(Cl)c1-c1cc(C(=O)N[C@H](CN)Cc2ccc(F)c(F)c2)oc1Cl [UPROSERTIB]
Kd [1]: > 30 µM (inactive)
Kd [2]: > 30 µM (inactive)
Kd [3]: > 30 µM (inactive)
Kd [4]: > 30 µM (inactive)
Kd (Ephrin type-A receptor 2): > 30 µM (inactive)
Kd [5]: > 30 µM (inactive)
Kd [7]: > 30 µM (inactive)

COc1ccc(S(=O)(=O)N(C(C)=O)c2ccccc2/C=C/c2cc[n+]([O-])cc2)cc1 [HMN-214]
Kd [1]: > 30 µM (inactive)
Kd [2]: > 30 µM (inactive)
Kd [3]: > 30 µM (inactive)
Kd [4]: > 30 µM (inactive)
Kd (Ephrin type-A receptor 2): > 30 µM (inactive)
Kd [5]: > 30 µM (inactive)
Kd [7]: > 30 µM (inactive)

— ChEMBL document CHEMBL3991601, “The target landscape of clinical kinase drugs” (Science, 2017)
